In patent US20030158255A1, “Use of bismuth subgallate in prevention and/or reduction of skin deterioration” (priority 2002, published 2003):

Test system: keratinocyte cells
Test: Proliferation of keratinocyte (cell count)
Type: cell-based
Settings: for effect on proliferation of keratinocyte: cell count after 2-12 days of cultivation, FIG. 1
Experimental: The keratinocyte cells were respectively cultivated with the following groups of agents: (a) 0.7 μg/1 ml, 7 μg/ml, 70 μg/ml and 700 μg/ml of bismuth subgallate; (b) 0.1 μg/ml, 1 μg/ml, 10 μg/ml and […]; and (c) 0.7 μg/ml bismuth subgallate in combination with 0.1 μg/ml borneol, 7 μg/ml bismuth subgallate in combination with 1 μg/ml borneol, 70 μg/ml bismuth subgallate in combination with 10 μg/ml borneol and 700 μg/ml bismuth subgallate in combination with 100 μg/ml borneol. After the cells were cultivated after 2, 4, 6, 8, 10 and 12 days respectively, their count was noted to evaluate the proliferation of them.

Row | Compound | effect on proliferation of keratinocyte | keratinocyte cell number relative to control (70 μg/ml bismuth subgallate, twelfth day)
1 | CC1(C)C2CCC1(C)C(O)C2 (stereo not drawn) [borneol] | no significant effect | –
2 | bismuth subgallate | significant increase in the proliferation of keratinocyte | up to two times of that of control
